These results are taken from patent US12533439B2, “Antibacterial wound treatments with clot-promoting properties” (University of Georgia Research Foundation, Inc., priority 2019, dated 2026).

For data set [1] the following is noted: TXA administered within 1 hour of injury; cited from earlier work.
Data set [2] relates to 3T3 mouse fibroblast cells. Briefly: WST-8 (CCK-8) cell viability assay on dressing leachates. The class given is cell-based. The settings on record: 24-hour leachate. On the technique in general: Tetrazolium dyes change colour on reduction, which living cells bring about.
Excerpt: The manufacturer's (Sigma-Aldrich) protocol was followed while using CCK-8 kit which utilizes highly water-soluble tetrazolium salt. In the live cells, WST-8 [2-(2-methoxy-4-nitrophenyl)-3-(4-nitrophenyl)-5-(2,4-disulfophenyl)-2H-tetrazolium monosodium salt] is reduced by dehydrogenases to give formazan (an orange-colored product), which can be detected at 450 nm. This means that a noncytotoxic material should generate a higher level of formazan than a relatively cytotoxic material because of WST-8 reduction. To obtain the leachate, samples weighing 10 mg each were added to 10 ml to in the DMEM medium for 24 hours at 37° C. The leachate was later used to grow the cells.
Seeding of cells. A culture of the fibroblast cells was grown in a 75 cm2 T-flask with Dulbecco modified Eagle's medium (DMEM) with 4.5 g/L-glutamine, 4.5 g/L glucose, 1% penicillin-streptomycin and 10% fetal bovine serum (FBS) after thawing a cryopreserved vial of fibroblast cells.^11 The cells could proliferate in an incubator which provided a physiological condition for their growth (5% CO2, 37° C.) until the confluence reached around 80-90%. […] The formula below was used to calculate cell viability.^12
To ensure that the components of wound dressing—CarboSil®, SNAP, TXA, and propolis—are not cytotoxic to the mammalian cells, a 24-hour cytotoxicity study was conducted on mouse fibroblast cells.

On to `NC[C@H]1CC[C@H](C(=O)O)CC1` [TXA, tranexamic acid], for which, in data set [1], the reduction in deaths is 32%.

Turning to `CC(=O)N[C@H](C(=O)O)C(C)(C)SN=O` (racemic) [SNAP, S-nitroso-N-acetylpenicillamine], the “cytotoxicity (relative cell viability)” value in data set [2] is given as “non-cytotoxic”.
